# Experimental data as given in patent US9873693B2 (Sunesis Pharmaceuticals, Inc., priority 2006, dated 2018).
# Where two headings read alike, the source gives them in different places.
# What was measured:
# dephosphorylated PDK1 = dephosphorylated PDK1 (Homo sapiens (Human), UniProt O15530); assay: PDK1 kinase assay (coupled PDK1/AKT/FAM-crosstide, IMAP); assay type: biochemical; conditions: 25 nM un-phosphorylated PDK1, 24 μM ATP; read-out: Inhibition of dephospo-PDK1 in vitro IC50
# Description: A PDK1 kinase assay was performed as follows. PDK1 (amino acids 51-360) and AKT2 (amino acids 140-467 fused to PIFtide, amino acids […]) were expressed as N-terminally tagged GST fusion proteins in insect cells and purified to greater than 90% homogeneity. PDK1 protein was divided into two fractions, one of which was subsequently dephosphorylated. To generate dephosphorylated PDK1, the PDK1 was reacted with GST-tagged lambda-phosphatase in vitro. GST was subsequently cleaved proteolytically for both phosphorylated and dephosphorylated PDK1. Protein preparations were run on glutathione Sepharose columns to remove GST and GST-tagged lambda-phosphatase, if present. Phosphorylated PDK1 and dephosphorylated PDK1 were verified by mass-spectrometry. Enzyme activity was determined in a coupled PDK1/AKT/FAM-crosstide assay using either phosphorylated or unphosphorylated PDK1 and phosphorylation of FAM-crosstide was determined by standard IMAP protocol (Molecular Devices). For inhibition studies, compounds were titrated 3-fold in DMSO and diluted 40-fold into assay buffer (10 mM Tris HCl pH7.2; 10 mM MgCl2; 0.01% Triton X-100; 1 mM DTT) containing PDK1, AKT2, and FAM-crosstide. (final concentrations: 25 nM un-phosphorylated PDK1 or 0.5 nM phosphorylated PDK1, 30 nM unphosphorylated AKT2, and 100 nM crosstide substrate). The kinase reaction was initiated by adding ATP to a final concentration of 24 μM for both forms of PDK1 and incubated at 25° C. for 30 min. To detect assay product, the kinase reaction was combined with Progressive Binding Solution (1:600 Progressive Binding Reagent, 50% Buffer A, 50% Buffer B, Molecular Devices) in a 1:3 ratio. The mixture was incubated for 2 hours at 25° C. and the plate was scanned on an Analyst AD with excitation at 485 nm and emission at 530 nm. The fluorescence polarization value “P” is defined by the equation below. The value “mP” is generated by multiplying the P value for each reaction well by a factor of 1000. The value “ΔmP” for each well is the mP value for that well minus the mP value for the average negative control. P=(Fpar−Fperp)/(Fpar+Fperp) Eq.:
# Where “par” is fluorescence intensity parallel to the excitation plane; and “perp” is fluorescence intensity perpendicular to the excitation plane. ΔmP values were plotted as a function of compound concentration and the data were analyzed with a 4-parameter fit using GraphPad Prism software.
# phospho-akt (Thr308) = phospho-akt (Thr308) MSD ELISA in PC-3 cells; assay type: cell-based; conditions: Homo sapiens; for EC50: PC-3, 2 h; for inhibition at 1 µM / inhibition at 10 µM: read-out: Percent Inhibition of phospho-Akt (308) By MSD ELISA
# In short: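 Read-out is MSD electrochemiluminescence after lysate capture overnight at 4 degrees and 1 hr RT detection-antibody step. Before lysis, overnight-plated PC-3 cells received three-fold serial dilutions of inhibitor in serum-free medium, with DMSO-only high controls.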
# phosphorylated PDK1 = phosphorylated PDK1 (Homo sapiens (Human), UniProt O15530); assay: PDK1 kinase assay (coupled PDK1/AKT/FAM-crosstide, IMAP); assay type: biochemical; conditions: 0.5 nM phosphorylated PDK1, 24 μM ATP; read-out: Inhibition of phospo-PDK1 in vitro IC50
# Sequence of phosphorylated PDK1 (O15530 51-360): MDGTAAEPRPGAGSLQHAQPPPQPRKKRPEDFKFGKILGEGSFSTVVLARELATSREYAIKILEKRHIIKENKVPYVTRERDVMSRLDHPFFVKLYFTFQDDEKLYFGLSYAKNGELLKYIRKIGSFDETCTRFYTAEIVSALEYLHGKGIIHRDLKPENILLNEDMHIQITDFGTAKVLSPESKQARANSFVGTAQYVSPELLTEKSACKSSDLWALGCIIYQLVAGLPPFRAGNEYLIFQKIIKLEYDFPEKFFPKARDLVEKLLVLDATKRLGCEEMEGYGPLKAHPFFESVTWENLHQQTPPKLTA
# [1] = PC-3 cells, 2 hours, no serum, read-out: Inhibition of P308 Akt in cells using MSD EC50
# [2] = PC-3 cells, 2 hours, no serum, read-out: Reduction of Cellular Levels of Akt p308 By MSD ELISA (EC50 μM)
# Sequence of dephosphorylated PDK1 (O15530 51-360): as above
Structure (SMILES),IC50 (dephosphorylated PDK1) [nM],EC50 (phospho-akt (Thr308); [1]) [µM],IC50 (phosphorylated PDK1) [nM],EC50 (phospho-akt (Thr308); [2]) [µM],inhibition at 1 µM (phospho-akt (Thr308); PC-3 cells) [%],inhibition at 10 µM (phospho-akt (Thr308); PC-3 cells) [%],EC50 (phospho-akt (Thr308); read-out: Reduction of Cellular Levels of Akt p308 By MSD ELISA (EC50 μM)) [µM]
CNc1nc(-c2ccc(CNC(=O)c3cccn(Cc4ccc(F)c(F)c4)c3=O)s2)cn2ccnc12 [Cpd 325],< 500,> 5,500 to 10000,,,,
O=C(NCc1noc(-c2ccc3ncnn3c2)n1)c1cccn(Cc2ccc(F)c(F)c2)c1=O [Cpd 235],< 500,,500 to 10000,> 5,,,
CNc1nc(-c2cccc(CNC(=O)c3cccn(Cc4ccc(F)c(F)c4)c3=O)c2)cn2ccnc12 [Cpd 326],500 to 10000,> 5,500 to 10000,,,,
O=C(C[C@@H](NC(=O)c1cccn(Cc2ccc(F)c(F)c2)c1=O)c1nnc(-c2c[nH]c3ncccc23)o1)NCCO [Cpd 297],< 500,,< 500,,< 25,< 25,
O=C(NCc1cccc(-c2ccc(=O)[nH]c2)c1)c1cccn(Cc2ccc(F)c(F)c2)c1=O [Cpd 220],500 to 10000,,500 to 10000,,25 to 75,25 to 75,
COC(=O)C[C@@H](NC(=O)c1cccn(Cc2ccc(F)c(F)c2)c1=O)c1ccc(-c2c[nH]c3ncccc23)s1 [Cpd 236],< 500,,500 to 10000,> 5,,,
O=C(O)C[C@@H](NC(=O)c1cccn(Cc2ccc(F)c(F)c2)c1=O)c1ccc(-c2c[nH]c3ncccc23)s1 [Cpd 15],< 500,,< 500,,,,> 5
O=C(NCCOc1cc2[nH]c(=O)[nH]c2cn1)c1cccn(Cc2ccc(F)c(F)c2)c1=O [Cpd 279],< 500,,< 500,> 5,,,
O=C(NCc1cnc(-c2c[nH]c3ncccc23)s1)c1cccn(Cc2ccc(Cl)c(Cl)c2)c1=O [Cpd 323],< 500,1 to 5,< 500,1 to 5,,,
O=C(N[C@H](COc1ccc2[nH]c(=O)[nH]c2c1)c1ccc(F)cc1)c1cccn(Cc2ccc(C(F)(F)F)cc2)c1=O [Cpd 148],< 500,1 to 5,< 500,1 to 5,,,
O=C(NCc1cccc(-c2ccc3ncnn3c2)c1)c1cccn(Cc2ccc(F)c(F)c2)c1=O [Cpd 3],< 500,,< 500,1 to 5,< 25,> 75,
O=C(NCc1cccc(-c2c[nH]c3ncc(-c4ccco4)cc23)c1)c1cccn(Cc2ccc(F)c(F)c2)c1=O [Cpd 57],< 500,,< 500,,,,
O=C(NCc1nc(-c2c[nH]c3ncccc23)cs1)c1cccn(Cc2cccc(Cl)c2)c1=O [Cpd 272],< 500,,< 500,,,,
COc1ccnc(NCCCCCNC(=O)c2cccn(Cc3ccc(F)c(Cl)c3)c2=O)n1 [Cpd 266],< 500,,500 to 10000,,,,
Nc1ncnc2[nH]nc(-c3cccc(CNC(=O)c4cccn(Cc5ccc(F)c(F)c5)c4=O)c3)c12 [Cpd 5],< 500,,< 500,,,,
O=C(NCc1nnc(-c2c[nH]c3ncccc23)s1)c1cccn(Cc2ccc(F)c(F)c2)c1=O [Cpd 124],< 500,,< 500,,,,
CNC(=O)[C@H](COc1ccc2[nH]c(=O)[nH]c2c1)NC(=O)c1cccn(Cc2cc(F)c(F)c(F)c2)c1=O [Cpd 157],< 500,,< 500,,,,
O=C1CC(c2cccc(CNC(=O)c3cccn(Cc4ccc(F)c(F)c4)c3=O)c2)CN1 (centres unmarked) [Cpd 111],500 to 10000,,500 to 10000,,,,
COc1ccnc(NCCCCCNC(=O)c2cc(Br)cn(Cc3cccc(F)c3)c2=O)n1 [Cpd 253],< 500,,500 to 10000,,,,
Cc1sc(CNC(=O)c2cccn(Cc3ccc(F)c(F)c3)c2=O)nc1-c1c[nH]c2ncccc12 [Cpd 275],< 500,,500 to 10000,,,,
C[C@@H](NC(=O)c1cccn(Cc2ccc(F)c(F)c2)c1=O)c1nc(-c2c[nH]c3ncccc23)cs1 [Cpd 114],< 500,,< 500,,,,
